Assay results reported in US10532085B2, “Methods for increasing intracellular activity of Hsp70” (Orphazyme A/S, priority 2010, dated 2020).

B1: rASM: recombinant acid sphingomyelinase (protein, UniProt P17405 47-631, looked up)
Sphingomyelin …: LALSDSRVLWAPAEAHPLSPQGHPARLHRIVPRLRDVFGWGNLTCPICKGLFTAINLGLKKEPNVARVGSVAIKLCNLLKIAPPAVCQSIVHLFEDDMVEVWRRSVLSPSEACGLLLGSTCGHWDIFSSWNISLPTVPKPPPKPPSPPAPGAPVSRILFLTDLHWDHDYLEGTDPDCADPLCCRRGSGLPPASRPGAGYWGEYSKCDLPLRTLESLLSGLGPAGPFDMVYWTGDIPAHDVWHQTRQDQLRALTTVTALVRKFLGPVPVYPAVGNHESTPVNSFPPPFIEGNHSSRWLYEAMAKAWEPWLPAEALRTLRIGGFYALSPYPGLRLISLNMNFCSRENFWLLINSTDPAGQLQWLVGELQAAEDRGDKVHIIGHIPPGHCLKSWSWNYYRIVARYENTLAAQFFGHTHVDEFEVFYDEETLSRPLAVAFLAPSATTYIGLNPGYRVYQIDGNYSGSSHVVLDHETYILNLTQANIPGAIPHWQLLYRARETYGLPNTLPTAWHNLVYRMRGDMQLFQTFWFLYHKGHPPSEPCGTPCRLATLCAQLSARADSPALCRHLMPDGSLPEAQSLWPRPLFC

What was measured:
[1] = system: U-2-OS cells; assay: Lysosomal integrity upon photo-oxidation (acridine orange and blue light); assay type: cell-based, Human; conditions: recombinant proteins 300 nM, 24 h
Procedure: FIG. 2: Lysosomal Hsp70 stabilizes lysosomal membranes. (a) Representative confocal images of U-2-OS cells incubated with 300 nM rHsp70-AF488 (green) for 24 h, fixed and stained for lysosomal integral membrane protein-1 (LIMP-1; red). For co-localization with other organelle markers see FIG. 3. (b) U-2-OS cells were incubated with 300 nM rHsp70-AF488 for 24 h before quantification of rHsp70-AF488 in membranes (memb.) and supernatant (sup.) obtained by repeated freeze/thaw cycles and centrifugation the light membrane fraction (LMF). […] (c) Representative still images of U-2-OS cells exposed to photo-oxidation (acridine orange and blue light). The loss of lysosomal integrity is visualized by the loss of red and increase in green staining. (d and e) U-2-OS cells were incubated with indicated recombinant proteins (300 nM) for 24 h, and analyzed for lysosomal integrity upon photo-oxidation. When indicated, cells were treated with indicated siRNAs for 48 h prior to the addition of recombinant proteins (e). The values represent means±SD (standard deviation) for three (d) or five (e) independent experiments. Representative immunoblots of indicated proteins from U-2-OS cells left untreated or treated with control or Hsp70 siRNAs are shown on the right. Scale bars: 20 μm (a and c).
WT- and Hsp70-MEFs were generated, immortalized and maintained as described in the art. Human NPDA fibroblasts (83/24) originate from a skin biopsy of a patient with hepatosplenomegaly. Recombinant proteins were generated using the pET-16b vector system and Ni^2+-affinity-purification (Novagen), and labeled with Alexa Fluor 488 according to manufacturers protocol (Molecular Probes). To analyze the lysosomal integrity, we developed a real time imaging method of cells stained with acridine orange, a metachromatic weak base that accumulates in the acidic compartment of the cells staining them red and sensitizing them to photo-oxidation. The photo-oxidation-induced loss of the lysosomal pH-gradient and leakage of acridine orange to the cytosol from individual lysosomes was quantified visually as “loss of red dots” in U2-O—S cells and as a decrease in red and an increase in green fluorescence by Zeiss LSM DUO Software in fibroblasts. The total and cytoplasmic (digitonin-extracted) cathepsin activities were measured in digitonin-treated samples using zFR-AFC (Enzyme System Products) probe as described in the art. The tryptophan fluorescence spectra and liposome 90° light scattering were analyzed in a HEPES buffer (20 mM HEPES, 0.1 mM EDTA, pH as indicated) essentially as described in the art. Surface plasmon resonance measurements were performed with immobilized LUVs using a BIAcore 2000 system as described in the art. Hsp70 siRNA (5′-[…]-3′) and a […] were transfected with Oligofectamine (Invitrogen). Immunodetection was performed with standard protocols. Apoptosis-like cell death and lysosomal membrane permeabilization were analyzed essentially as described in the art. ASM activity was analyzed by Amplex Red Sphingomyelinase Assay Kit (A12220) from Molecular Probes with modifications described in the art. Statistical analysis was performed using a two-tailed, paired Student's T-test and all groups of data were tested for the comparability of their variances using an F-test.
Sub-confluent cells incubated with 2 μg/ml acridine orange for 15 min at 37° C. were washed, irradiated and analyzed in Hanks balanced salt solution complemented with 3% fetal calf serum. Cells for single cell imaging were selected from 8 pre-defined areas of each well in transmitted light-mode after which the same cells were immediately visualized and exposed to blue light from USH102 100W mercury arc burner (Ushio electric) installed in a U-ULS100HG housing (Olympus) for 20 sec. Fluorescence microscopy was performed on Olympus IX-70 inverted microscope with a LCPlanF1 ×20 objective with NA=0.40. […]

[2] = Surface plasmon resonance (BIAcore) BMP interaction; assay type: binding; conditions: acidic pH
Text: Thus, we investigated the interaction of Hsp70 with palmitoyl-oleoyl-phosphatidylcholine (POPC) large unilamellar vesicles (LUVs) containing various membrane-associated anionic lipids, i.e. palmitoyl-oleoyl-phosphatidylserine (POPS; primarily in plasma membrane), cardiolipin (primarily mitochondrial) and BMP (primarily in late endosomes/lysosomes). Taking into account the increasingly acidic milieu of the endo-lysosomal compartment upon maturation to lysosomes, we compared the protein-lipid interactions in neutral (pH 7.4) and acidic (pH 6.0) conditions. […] As reported earlier for POPS, all negatively charged lipids enhanced the binding of rHsp70 to the liposomes at neutral pH approximately 4-fold irrespective of the charge density on the liposome surface (ranging from −1 to −2).
(§1) In order to investigate which part of the Hsp70 protein is responsible for the BMP binding, we measured the fluorescence shift of the tryptophans upon docking of rHsp70 and its mutants into BMP-containing liposomes. […] Next, we substituted the two tryptophans in Hsp70 with phenylalanines (W90F and W580F) and studied which tryptophan is responsible for the fluorescence shift induced by lipid binding. […] A more quantitative BIAcore analysis of the BMP—rHsp70 interaction confirmed that Hsp70 interacted with BMP mainly through its ATPase domain. […]

[3] = Tryptophan fluorescence shift upon docking into BMP-containing liposomes; assay type: binding
Text: In order to investigate which part of the Hsp70 protein is responsible for the BMP binding, we measured the fluorescence shift of the tryptophans upon docking of rHsp70 and its mutants into BMP-containing liposomes. […] Next, we substituted the two tryptophans in Hsp70 with phenylalanines (W90F and W580F) and studied which tryptophan is responsible for the fluorescence shift induced by lipid binding. […] A more quantitative BIAcore analysis of the BMP—rHsp70 interaction confirmed that Hsp70 interacted with BMP mainly through its ATPase domain. […] Thus, the rHsp70-W90F mutant provided us with an invaluable tool to further test whether the direct interaction between Hsp70 and BMP endows Hsp70 with its lysosome protective attributes. […] Importantly, mutant Hsp70 proteins were endocytosed essentially as effectively as the wild type Hsp70.
The tryptophan fluorescence spectra (RFI) and liposome 90° light scattering (RSI) were analyzed in a HEPES buffer (20 mM HEPES, 0.1 mM EDTA, pH 7.4 or 6.0 as indicated) employing LUVs consisting of indicated lipids essentially as described in the art. For the RFI, LUVs were added in 10 μM aliquots and spectra recorded after a 20 min stabilization period. For the RSI, recombinant proteins were added in 0.12 nmol aliquots.

[4] = target: T1, Hsp70 chaperone (Homo sapiens, UniProt P0DMV8, W90F); assay: Structural and functional aspects of the Hsp70 chaperone (circular dichroism, luciferase folding, ATP hydrolysis); assay type: biochemical; conditions: far- and near-UV circular dichroism
T1 construct: made in house

[5] = system: cisplatin-induced lysosomal cell death; assay: Cisplatin-induced lysosomal cell death; assay type: cell-based
Text: Thus, we investigated the interaction of Hsp70 with palmitoyl-oleoyl-phosphatidylcholine (POPC) large unilamellar vesicles (LUVs) containing various membrane-associated anionic lipids, i.e. palmitoyl-oleoyl-phosphatidylserine (POPS; primarily in plasma membrane), cardiolipin (primarily mitochondrial) and BMP (primarily in late endosomes/lysosomes). Taking into account the increasingly acidic milieu of the endo-lysosomal compartment upon maturation to lysosomes, we compared the protein-lipid interactions in neutral (pH 7.4) and acidic (pH 6.0) conditions. […]
as §1
Cell density was assessed by the 3-(4,5-dimethylthiazole-2-y)-2,5-[…] (MTT, SIGMA-Aldrich) reduction assay essentially as described in the art. […] For each experiment a minimum of eight randomly chosen areas were counted.

[6] = system: ASM; assay: ASM activity in NPDA patient cells; assay type: cell-based, Human; conditions: loading the lysosomes of patient cells
Text: (§2) BMP binds ASM with high affinity and stimulates its ability to hydrolyze sphingomyelin to ceramide and phosphorylcholine. […] In order to test whether ASM is responsible for the lysosome stabilizing effect we treated the cells with desipramine, a well characterized pharmacological ASM inhibitor. […] It should be noted that akin to rHsp70, also rASM localized to the lysosomes.
WT- and Hsp70-MEFs were generated, immortalized and maintained as described in the art. Human NPDA fibroblasts (83/24) originate from a skin biopsy of a patient with hepatosplenomegaly. […] The photo-oxidation-induced loss of the lysosomal pH-gradient and leakage of acridine orange to the cytosol from individual lysosomes was quantified visually as “loss of red dots” in U2-O—S cells and as a decrease in red and an increase in green fluorescence by Zeiss LSM DUO Software in fibroblasts. The total and cytoplasmic (digitonin-extracted) cathepsin activities were measured in digitonin-treated samples using zFR-AFC (Enzyme System Products) probe as described in the art. The tryptophan fluorescence spectra and liposome 90° light scattering were analyzed in a HEPES buffer (20 mM HEPES, 0.1 mM EDTA, pH as indicated) essentially as described in the art. […] Apoptosis-like cell death and lysosomal membrane permeabilization were analyzed essentially as described in the art. […]

[7] = system: NPDA cells; assay: Lysosomal stability in NPDA cells; assay type: cell-based, Human
Procedure: as §2
Sub-confluent cells incubated with 2 μg/ml acridine orange for 15 min at 37° C. were washed, irradiated and analyzed in Hanks balanced salt solution complemented with 3% fetal calf serum. Cells for single cell imaging were selected from 8 pre-defined areas of each well in transmitted light-mode after which the same cells were immediately visualized and exposed to blue light from USH102 100W mercury arc burner (Ushio electric) installed in a U-ULS100HG housing (Olympus) for 20 sec. Fluorescence microscopy was performed on Olympus IX-70 inverted microscope with a LCPlanF1 ×20 objective with NA=0.40. Loss of lysosomal pH gradient was quantified by counting the loss of intense red staining. A more elaborate method for assaying lysosomal integrity was developed to handle the larger lysosomal compartment of the various fibroblasts used in this study. […] The resulting timelapse movies where subsequently analysed by the integrated Zeiss LSM DUO software.

[8] = system: NPDA cells; assay: Volume of the lysosomal compartment in NPDA cells; assay type: cell-based, Human
Text: as §2
Primary antibodies used included mouse monoclonal antibodies against Hsp70 (2H9; kindly provided by Boris Margulis, Russian Academy of Sciences, St. Petersburg, Russia), glyceraldehyde-3-phosphate dehydrogenase (GAPDH; Biogenesis), BMP (6C4), lysosomal integral membrane protein-1 (H5C6; developed by J. Thomas August and James E. K. Hildreth and obtained from the Developmental Studies Hybridoma Bank developed under the auspices of the NICHD and maintained by The University of Iowa, Department of Biological Sciences, Iowa City, USA). Proteins separated by 10% SDS-PAGE and transferred to a nitrocellulose membrane were detected by using indicated primary antibodies, appropriate peroxidase-conjugated secondary antibodies from Dako, ECL Western blotting reagents (Amersham), and Luminescent Image Reader (LAS-1000Plus, Fujifilm). For immunocytochemistry Alexa […] or Alexa Fluor®-488-conjugated secondary antibodies were used. […] Fluorescence images were taken using a Zeiss Axiovert 100M laser scanning microscope. […]

T1 sequence (P0DMV8 whole entry W90F): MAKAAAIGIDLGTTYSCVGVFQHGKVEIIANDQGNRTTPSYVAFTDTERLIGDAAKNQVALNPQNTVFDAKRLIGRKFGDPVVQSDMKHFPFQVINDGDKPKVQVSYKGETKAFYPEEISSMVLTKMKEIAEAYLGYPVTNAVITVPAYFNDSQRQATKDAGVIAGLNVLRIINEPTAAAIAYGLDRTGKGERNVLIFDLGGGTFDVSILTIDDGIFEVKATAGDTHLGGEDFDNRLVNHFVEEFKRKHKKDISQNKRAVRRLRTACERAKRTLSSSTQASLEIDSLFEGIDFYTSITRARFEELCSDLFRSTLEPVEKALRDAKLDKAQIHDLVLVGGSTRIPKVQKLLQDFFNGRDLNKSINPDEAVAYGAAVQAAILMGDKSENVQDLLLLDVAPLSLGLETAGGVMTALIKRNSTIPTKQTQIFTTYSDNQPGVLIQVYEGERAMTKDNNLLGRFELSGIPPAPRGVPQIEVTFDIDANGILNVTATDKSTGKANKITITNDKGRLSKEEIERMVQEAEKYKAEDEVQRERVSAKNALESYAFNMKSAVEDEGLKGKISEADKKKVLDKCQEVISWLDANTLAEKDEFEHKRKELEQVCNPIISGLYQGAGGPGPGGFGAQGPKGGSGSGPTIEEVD

| Molecule | protection of lysosomes against photo-oxidation (lysosomal stabilization) [1] | protection of cells against cisplatin-induced lysosomal cell death [5] | other results |
| --- | --- | --- | --- |
| Hsc70: recombinant Hsc70, 86% identical to the amino acid sequence of Hsp70 | no lysosomal stabilization | – | – |
| Hsp70-2: recombinant Hsp70-2, 84% identical to the amino acid sequence of Hsp70 | no lysosomal stabilization | – | – |
| rHsp70-W90F: rHsp70 mutant with tryptophan 90 substituted with phenylalanine | completely lost its ability to protect | completely lost its ability to protect | interaction with BMP (BIAcore) [2]: specifically abolished the interaction between rHsp70 and BMP; relative peak fluorescence intensity (tryptophan fluorescence shift) [3]: reduction of the signal; structural and functional aspects of the chaperone [4]: retaining the structural (folding as analyzed by far- and near-UV circular dichroism) and functional (luciferase folding and ATP hydrolysis) aspects |
| rHsp70-W580F: rHsp70 mutant with tryptophan 580 substituted with phenylalanine | same protective effect as the wild-type protein | same protective effect as the wild-type protein | – |
| B1 | – | – | ASM activity in NPDA patient cells [6]: increased ASM activity; stabilization of lysosomes in NPDA cells [7]: stabilize the lysosomes; volume of the enlarged lysosomal compartment in NPDA cells [8]: normalize the volume |
